Laboratory results reported in patent US9469642B2, “Purinone compounds as kinase inhibitors” (Pharmacyclics LLC, priority 2012, dated 2016).
pIC50: −log10 of the molar value.

Key:
Type in all cases: biochemical
EGFR = EGFR (Homo sapiens, UniProt P00533); assay: Kinase panel inhibition, EGFR (one of the methods of Example 76a, 76b, 76c)
Outline: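 Kinase activity was measured by TR-FRET in 50 μL reactions in 96-well plates. Enzyme, inhibitor, ATP at its Km and a biotinylated peptide substrate were incubated for one hour at pH 7.4 in buffer containing 20 mM Tris, 50 mM NaCl, MgCl2, MnCl2, 1 mM DTT, 0.1 mM EDTA, 0.01% bovine serum albumin, 0.005% Tween-20 and 10% DMSO. Reactions were stopped with EDTA in Lance buffer. Streptavidin-APC and Eu-labeled p-Tyr100 antibody were added for one hour. The 665/615 nm emission ratio gave activity. IC50 was derived from Ki(app) fitted with BatchKi.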

LCK = LCK (Homo sapiens, UniProt P06239); assay: Kinase panel inhibition, LCK (one of the methods of Example 76a, 76b, 76c)
Chain of LCK (P06239 whole entry, species assumed): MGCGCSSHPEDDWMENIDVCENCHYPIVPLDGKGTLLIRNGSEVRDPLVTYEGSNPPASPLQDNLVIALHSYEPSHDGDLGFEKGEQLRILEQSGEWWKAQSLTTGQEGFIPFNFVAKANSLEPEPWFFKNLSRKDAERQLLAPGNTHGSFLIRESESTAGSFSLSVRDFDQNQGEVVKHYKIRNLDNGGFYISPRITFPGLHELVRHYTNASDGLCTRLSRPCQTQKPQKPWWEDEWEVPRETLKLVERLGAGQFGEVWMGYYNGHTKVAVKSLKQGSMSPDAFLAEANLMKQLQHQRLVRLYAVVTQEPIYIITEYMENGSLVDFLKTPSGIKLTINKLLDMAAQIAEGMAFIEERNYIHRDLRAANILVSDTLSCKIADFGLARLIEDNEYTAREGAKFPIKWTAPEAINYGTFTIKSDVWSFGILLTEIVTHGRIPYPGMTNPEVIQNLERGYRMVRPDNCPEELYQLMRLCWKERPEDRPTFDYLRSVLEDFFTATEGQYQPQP
Outline: (§1)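 BTK (0.5 nM) and LCK (6 nM) by TR-FRET, ATP at Km, biotinylated peptide, pH 7.4, 1 h; Ki(app) converted to IC50. Alternatively, full-length His6-BTK (1 nM) by mobility shift, 16 μM ATP (Km), 1 μM FAM peptide, pH 7.5, 1 h; IC50 from 12-point 4-parameter fit. Radiometric filter-binding option also used.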

BTK = biological target: T1, BTK (Homo sapiens, UniProt Q06187); assay: Btk in vitro inhibitory activity (kinase assay by one of Methods A, B or C)
T1 construct: purified from insect cells as a full-length construct containing a N-terminal 6×-His tag; His6 (N); host or cells: insect cells (baculovirus Sf21)
T1 sequence (Q06187 whole entry): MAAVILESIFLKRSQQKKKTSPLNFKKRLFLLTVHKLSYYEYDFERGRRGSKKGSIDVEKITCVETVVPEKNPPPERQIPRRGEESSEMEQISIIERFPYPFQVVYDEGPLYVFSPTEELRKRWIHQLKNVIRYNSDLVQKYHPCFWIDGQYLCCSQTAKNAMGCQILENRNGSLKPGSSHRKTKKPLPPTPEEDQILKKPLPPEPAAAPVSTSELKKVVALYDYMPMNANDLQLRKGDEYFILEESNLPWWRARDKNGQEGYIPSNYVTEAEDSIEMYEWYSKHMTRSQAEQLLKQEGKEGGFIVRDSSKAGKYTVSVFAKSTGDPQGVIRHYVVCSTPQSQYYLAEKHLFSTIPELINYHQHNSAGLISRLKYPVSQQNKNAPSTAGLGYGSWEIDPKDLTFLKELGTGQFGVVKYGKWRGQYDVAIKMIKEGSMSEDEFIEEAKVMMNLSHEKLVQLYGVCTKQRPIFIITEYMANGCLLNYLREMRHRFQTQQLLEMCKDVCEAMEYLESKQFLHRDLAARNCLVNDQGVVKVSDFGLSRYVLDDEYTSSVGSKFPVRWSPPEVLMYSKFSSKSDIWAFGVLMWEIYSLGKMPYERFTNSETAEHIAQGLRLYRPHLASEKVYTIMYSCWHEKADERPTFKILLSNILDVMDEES
Outline: as §1

Chain of EGFR (P00533 25-1210, species assumed): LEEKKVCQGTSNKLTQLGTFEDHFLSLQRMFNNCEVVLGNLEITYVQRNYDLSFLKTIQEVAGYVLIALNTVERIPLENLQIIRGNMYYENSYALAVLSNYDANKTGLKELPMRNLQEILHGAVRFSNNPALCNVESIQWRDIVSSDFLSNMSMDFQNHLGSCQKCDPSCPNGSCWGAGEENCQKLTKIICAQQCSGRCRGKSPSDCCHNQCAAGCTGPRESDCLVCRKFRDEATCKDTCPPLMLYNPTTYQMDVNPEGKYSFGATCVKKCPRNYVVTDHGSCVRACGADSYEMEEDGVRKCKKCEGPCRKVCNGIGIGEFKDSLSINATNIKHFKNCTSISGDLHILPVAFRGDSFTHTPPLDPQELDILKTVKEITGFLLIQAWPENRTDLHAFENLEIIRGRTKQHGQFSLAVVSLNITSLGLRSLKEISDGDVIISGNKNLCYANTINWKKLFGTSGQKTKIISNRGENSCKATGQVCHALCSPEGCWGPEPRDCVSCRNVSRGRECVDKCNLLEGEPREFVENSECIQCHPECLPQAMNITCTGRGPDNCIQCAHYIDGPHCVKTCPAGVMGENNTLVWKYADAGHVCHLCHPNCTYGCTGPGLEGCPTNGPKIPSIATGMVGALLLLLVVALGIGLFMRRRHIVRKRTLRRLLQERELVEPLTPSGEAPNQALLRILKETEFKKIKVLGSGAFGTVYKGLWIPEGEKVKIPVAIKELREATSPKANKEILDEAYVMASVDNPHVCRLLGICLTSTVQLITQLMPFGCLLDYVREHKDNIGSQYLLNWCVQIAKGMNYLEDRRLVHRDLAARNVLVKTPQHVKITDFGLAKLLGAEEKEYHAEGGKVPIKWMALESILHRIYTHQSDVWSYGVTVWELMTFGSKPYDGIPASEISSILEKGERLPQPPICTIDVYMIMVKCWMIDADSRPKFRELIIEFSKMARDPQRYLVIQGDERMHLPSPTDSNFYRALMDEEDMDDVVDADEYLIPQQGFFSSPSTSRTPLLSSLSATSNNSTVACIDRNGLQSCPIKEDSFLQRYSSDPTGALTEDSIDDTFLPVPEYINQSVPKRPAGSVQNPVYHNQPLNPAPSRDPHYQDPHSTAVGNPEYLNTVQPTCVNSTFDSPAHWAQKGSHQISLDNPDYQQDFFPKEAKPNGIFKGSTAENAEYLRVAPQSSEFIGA

Compound	pIC50 (EGFR)	pIC50 (LCK)	pIC50 (BTK)
Cc1cc(Oc2ccccc2)ccc1-n1c(=O)n(-c2cccc(N(C)C(=O)/C=C/CN(C)C3CC3)c2)c2ncnc(N)c21 [Compound 290, (E)-N-(3-(6-amino-7-(2-methyl-4-phenoxyphenyl)-8-oxo-7H-purin-9(8H)-yl)phenyl)-4-(cyclopropyl(methyl)amino)-N-methylbut-2-enamide]	5.00 to 6.00	5.00 to 6.00	> 7.00
COc1cc(-n2c(=O)n(-c3cccc(N(C)C(=O)/C=C/CN(C)C4CC4)c3)c3ncnc(N)c32)ccc1OCc1ccccc1 [Compound 295, (E)-N-(3-(6-amino-7-(4-(benzyloxy)-3-methoxyphenyl)-8-oxo-7H-purin-9(8H)-yl)phenyl)-4-(cyclopropyl(methyl)amino)-N-methylbut-2-enamide]	< 5.00	< 5.00	> 7.00
Cc1cc(NC(=O)/C=C/CN(C)C2CC2)cc(-n2c(=O)n(-c3ccc(Oc4ccccc4)cc3C)c3c(N)ncnc32)c1 [Compound 298, (E)-N-(3-(6-amino-7-(2-methyl-4-phenoxyphenyl)-8-oxo-7H-purin-9(8H)-yl)-5-methylphenyl)-4-(cyclopropyl(methyl)amino)but-2-enamide]	6.00 to 7.00	5.00 to 6.00	> 7.00
COc1cc(NC(=O)/C=C/CN(C)C2CC2)cc(-n2c(=O)n(-c3ccc(Oc4ccccc4)cc3C)c3c(N)ncnc32)c1 [Compound 301, (E)-N-(3-(6-amino-7-(2-methyl-4-phenoxyphenyl)-8-oxo-7H-purin-9(8H)-yl)-5-methoxyphenyl)-4-(cyclopropyl(methyl)amino)but-2-enamide]	6.00 to 7.00	5.00 to 6.00	> 7.00
CN(C/C=C/C(=O)N1CCOc2ccc(-n3c(=O)n(-c4ccc(Oc5cccc(F)c5)cc4)c4c(N)ncnc43)cc21)C1CC1 [Compound 306, (E)-6-amino-9-(4-(4-(cyclopropyl(methyl)amino)but-2-enoyl)-3,4-dihydro-2H-benzo[b][1,4]oxazin-6-yl)-7-(4-(3-fluorophenoxy)phenyl)-7H-purin-8(9H)-one]	6.00 to 7.00	5.00 to 6.00	> 7.00
CN(C(=O)/C=C/CN(C)[C@H]1CCOC1)c1cccc(-n2c(=O)n(-c3ccc(Oc4cccc(F)c4)cc3)c3c(N)ncnc32)c1 [Compound 309, (S,E)-N-(3-(6-amino-7-(4-(3-fluorophenoxy)phenyl)-8-oxo-7H-purin-9(8H)-yl)phenyl)-N-methyl-4-(methyl(tetrahydrofuran-3-yl)amino)but-2-enamide]	5.00 to 6.00	5.00 to 6.00	> 7.00
COc1ccc(-n2c(=O)n(-c3ccc(Oc4cccc(F)c4)cc3)c3c(N)ncnc32)cc1N(C)C(=O)/C=C/CN(C)C1CC1 [Compound 312, (E)-N-(5-(6-amino-7-(4-(3-fluorophenoxy)phenyl)-8-oxo-7H-purin-9(8H)-yl)-2-methoxyphenyl)-4-(cyclopropyl(methyl)amino)-N-methylbut-2-enamide]	< 5.00	< 5.00	> 7.00
COc1ccc(-n2c(=O)n(-c3ccc(Oc4ccccc4)cc3)c3c(N)ncnc32)cc1N(C)C(=O)/C=C/CN(C)[C@H]1CCOC1 [Compound 313, (S,E)-N-(5-(6-amino-8-oxo-7-(4-phenoxyphenyl)-7H-purin-9(8H)-yl)-2-methoxyphenyl)-N-methyl-4-(methyl(tetrahydrofuran-3-yl)amino)but-2-enamide]	5.00 to 6.00	5.00 to 6.00	> 7.00
CN(C/C=C/C(=O)Nc1cccc(-n2c(=O)n(-c3ccc(Oc4cccc(F)c4)cc3)c3c(N)ncnc32)c1)[C@H]1CCOC1 [Compound 316, (S,E)-N-(3-(6-amino-7-(4-(3-fluorophenoxy)phenyl)-8-oxo-7H-purin-9(8H)-yl)phenyl)-4-(methyl(tetrahydrofuran-3-yl)amino)but-2-enamide]	6.00 to 7.00	5.00 to 6.00	> 7.00
CN(C/C=C/C(=O)Nc1cccc(-n2c(=O)n(-c3ccc(Oc4ccccc4)cc3)c3c(N)ncnc32)c1)[C@H]1CCOC1 [Compound 317, (S,E)-N-(3-(6-amino-8-oxo-7-(4-phenoxyphenyl)-7H-purin-9(8H)-yl)phenyl)-4-(methyl(tetrahydrofuran-3-yl)amino)but-2-enamide]	6.00 to 7.00	6.00 to 7.00	> 7.00
COCCN(C)C/C=C/C(=O)Nc1cccc(-n2c(=O)n(-c3ccc(Oc4ccccc4)cc3)c3c(N)ncnc32)c1 [Compound 318, (E)-N-(3-(6-amino-8-oxo-7-(4-phenoxyphenyl)-7H-purin-9(8H)-yl)phenyl)-4-((2-methoxyethyl)(methyl)amino)but-2-enamide]	> 7.00	6.00 to 7.00	> 7.00
N#C/C(=C\C1CC1)C(=O)N1CCC[C@@H](n2c(=O)n(-c3ccc(Oc4ccccc4)cc3)c3c(N)ncnc32)C1 [Compound 324, (R,E)-2-(3-(6-amino-8-oxo-7-(4-phenoxyphenyl)-7H-purin-9(8H)-yl)piperidine-1-carbonyl)-3-cyclopropylacrylonitrile]	6.00 to 7.00	6.00 to 7.00	> 7.00
CN(C(=O)/C(C#N)=C/C1CC1)c1cccc(-n2c(=O)n(-c3ccc(Oc4ccccc4)cc3)c3c(N)ncnc32)c1 [Compound 325, (E)-N-(3-(6-amino-8-oxo-7-(4-phenoxyphenyl)-7H-purin-9(8H)-yl)phenyl)-2-cyano-3-cyclopropyl-N-methylacrylamide]	6.00 to 7.00	6.00 to 7.00	> 7.00
CN(C(=O)/C=C/c1cn(C)cn1)c1cccc(-n2c(=O)n(-c3ccc(Oc4ccccc4)cc3)c3c(N)ncnc32)c1 [Compound 327, (E)-N-(3-(6-amino-8-oxo-7-(4-phenoxyphenyl)-7H-purin-9(8H)-yl)phenyl)-N-methyl-3-(1-methyl-1H-imidazol-4-yl)acrylamide]	5.00 to 6.00	5.00 to 6.00	6.00 to 7.00
CN(C)C/C=C/C(=O)N(C)[C@H]1CC[C@@H](n2c(=O)n(-c3ccc(Oc4ccccc4)cc3)c3c(N)ncnc32)CC1 [Compound 328, (E)-N-((1s,4s)-4-(6-amino-8-oxo-7-(4-phenoxyphenyl)-7H-purin-9(8H)-yl)cyclohexyl)-4-(dimethylamino)-N-methylbut-2-enamide]	> 7.00	> 7.00	> 7.00
CNC/C=C/C(=O)Nc1cccc(-n2c(=O)n(-c3ccc(Oc4ccccc4)cc3)c3c(N)ncnc32)c1 [Compound 329, (E)-N-(3-(6-amino-8-oxo-7-(4-phenoxyphenyl)-7H-purin-9(8H)-yl)phenyl)-4-(methylamino)but-2-enamide]	> 7.00	6.00 to 7.00	> 7.00
